In patent US20250099478A1, “PLASMA KALLIKREIN INHIBITORS” (Merck Sharp & Dohme LLC, priority 2022, published 2025):
pIC50: −log10 of the molar value.

Experiments:
Human plasma kallikrein = molecular target: T1, Human plasma kallikrein (Homo sapiens, UniProt P03952); assay: Plasma Kallikrein Assay; assay type: biochemical; settings: purified Human plasma kallikrein 0.5 nM, substrate Acetyl-K-P-R-AFC; read-out: PKal IC50
T1 construct: yields a heavy chain (371 amino acids) and a light chain (248 amino acids); purchased Enzyme Research Laboratories
Procedure, shortened: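 Purified human plasma kallikrein (0.5 nM) hydrolysing fluorogenic Acetyl-K-P-R-AFC ([…]) in 50 mM HEPES pH 7.4, 150 mM NaCl, 5 mM CaCl2, 0.1% PEG 8000, at rt or 37 °C after enzyme–inhibitor equilibration. IC50 from four-parameter logistic fit; Ki via Cheng–Prusoff.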

human factor XIa = molecular target: T2, human factor XIa (Homo sapiens, UniProt P03951); assay: Factor XIa Assay; assay type: biochemical; settings: human factor XIa 0.04 nM, substrate GPR-AFC, 25° C.
T2 construct: with human (0.04 nM) factor XIa
Procedure: The effectiveness of a compound of the present invention as an inhibitor of Coagulation factor XIa can be determined using a relevant purified serine protease, and an appropriate synthetic substrate. The rate of hydrolysis of the chromogenic or fluorogenic substrate by the relevant serine protease was measured both in the absence and presence of compounds of the present invention. Assays were conducted at rt or at 37° C. […] A decrease in the rate of fluorescence change in the presence of inhibitor is indicative of enzyme inhibition. Such methods are known to one skilled in the art. The results of this assay are expressed as the half-maximal inhibitory concentrations (IC50), or the inhibitory constant, Ki.
Compounds were pre-incubated for 30 min at 25° C. with human (0.04 nM) factor XIa in 50 mM HEPES buffer with 150 mM sodium chloride, 5 mM calcium chloride, 0.1% PEG 8000, pH 7.4. factor XIa enzymatic activity was determined by addition of the substrate glycine-proline-arginine-7-amido-4-trifluoromethylcoumarin (GPR-AFC) and measurement of the fluorescence at 400/505 nm after a 60 min incubation at 25° C. The % inhibition for each data point was calculated from the data and analyzed using the log (inhibitor) vs. response four parameters equation to determine the half-maximal inhibitory concentrations (IC50). The IC50 were converted to equilibrium inhibitory constants (Ki) using the Cheng-Prusoff equation.

T1 sequence (P03952 391-638 limits assumed): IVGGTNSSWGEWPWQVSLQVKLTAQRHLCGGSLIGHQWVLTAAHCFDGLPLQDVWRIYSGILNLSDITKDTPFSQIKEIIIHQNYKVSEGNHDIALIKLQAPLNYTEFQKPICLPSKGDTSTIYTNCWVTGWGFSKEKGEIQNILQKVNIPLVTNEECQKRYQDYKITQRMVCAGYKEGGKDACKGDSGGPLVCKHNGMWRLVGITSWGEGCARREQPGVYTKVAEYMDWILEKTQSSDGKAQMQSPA
T1 sequence (P03952 20-390 partner limits assumed): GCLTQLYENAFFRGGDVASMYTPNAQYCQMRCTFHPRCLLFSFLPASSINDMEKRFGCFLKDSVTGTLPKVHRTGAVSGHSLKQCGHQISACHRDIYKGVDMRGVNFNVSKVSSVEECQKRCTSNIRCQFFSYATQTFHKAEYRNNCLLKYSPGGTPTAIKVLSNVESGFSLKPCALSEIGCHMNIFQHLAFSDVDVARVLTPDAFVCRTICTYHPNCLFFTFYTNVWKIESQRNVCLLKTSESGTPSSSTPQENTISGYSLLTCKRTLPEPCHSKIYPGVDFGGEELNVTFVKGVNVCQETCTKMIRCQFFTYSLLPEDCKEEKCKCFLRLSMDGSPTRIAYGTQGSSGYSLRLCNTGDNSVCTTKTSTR
T2 sequence (P03951 388-625 limits assumed): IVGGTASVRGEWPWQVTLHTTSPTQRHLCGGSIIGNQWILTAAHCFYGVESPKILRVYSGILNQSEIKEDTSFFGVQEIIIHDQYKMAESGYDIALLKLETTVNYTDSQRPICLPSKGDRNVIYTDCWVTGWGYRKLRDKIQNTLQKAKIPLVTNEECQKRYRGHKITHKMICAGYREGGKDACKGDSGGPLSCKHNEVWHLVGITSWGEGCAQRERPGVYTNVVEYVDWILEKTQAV
T2 sequence (P03951 19-387 partner limits assumed): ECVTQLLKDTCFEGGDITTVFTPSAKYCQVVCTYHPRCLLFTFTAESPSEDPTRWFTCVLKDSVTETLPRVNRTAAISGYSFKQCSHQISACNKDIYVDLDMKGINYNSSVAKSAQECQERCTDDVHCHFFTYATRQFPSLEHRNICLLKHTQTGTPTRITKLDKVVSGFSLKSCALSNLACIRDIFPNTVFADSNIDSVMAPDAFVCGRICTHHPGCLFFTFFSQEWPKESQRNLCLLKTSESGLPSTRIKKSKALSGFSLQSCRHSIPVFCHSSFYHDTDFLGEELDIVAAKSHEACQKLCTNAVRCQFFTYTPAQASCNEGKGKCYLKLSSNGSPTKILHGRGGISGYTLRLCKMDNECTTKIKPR

pIC50 (Human plasma kallikrein)	pIC50 (human factor XIa)	Compound
8.16	5.80	O=C1Nc2ccc(Cl)c(F)c2[C@@]2(CCCN(C(=O)c3cnn([C@@H](CC4CC4)c4ccccc4)c3)C2)O1 (single isomer, unassigned) [Example 1]
8.49	6.69	O=C1Nc2ccc(Cl)c(F)c2[C@@]2(CCCN(C(=O)c3cnn([C@H](CC4CC4)c4ccccc4)c3)C2)O1 (single isomer, unassigned) [Example 2]
7.98	6.68	CCC(c1ccc(F)cc1)n1cc(C(=O)N2CCC[C@@]3(C2)OC(=O)Nc2ccc(Cl)c(F)c23)cn1 (single isomer, unassigned) [Example 25]
8.16	5.12	CCC(c1ccc(F)cc1)n1cc(C(=O)N2CCC[C@@]3(C2)OC(=O)Nc2ccc(Cl)c(F)c23)cn1 (single isomer, unassigned) [Example 26]
8.16	5.80	O=C1Nc2ccc(Cl)c(F)c2[C@@]2(CCCN(C(=O)c3cnn(C(CC4CC4)c4ccccc4)c3)C2)O1 (single isomer, unassigned) [Example 29]
8.24	5.36	CCC(c1cccc(S(C)(=O)=O)c1)n1cc(C(=O)N2CCC[C@@]3(C2)OC(=O)Nc2ccc(Cl)c(F)c23)cn1 (single isomer, unassigned) [Example 30]
8.05	5.61	CCC(c1cccc(S(C)(=O)=O)c1)n1cc(C(=O)N2CCC[C@@]3(C2)OC(=O)Nc2ccc(Cl)c(F)c23)cn1 (single isomer, unassigned) [Example 31]
8.34	5.75	CCC(c1ccc2c(c1)OCO2)n1cc(C(=O)N2CCC[C@@]3(C2)OC(=O)Nc2ccc(Cl)c(F)c23)cn1 (single isomer, unassigned) [Example 32]
8.38	5.32	CCC(c1ccc2c(c1)OCO2)n1cc(C(=O)N2CCC[C@@]3(C2)OC(=O)Nc2ccc(Cl)c(F)c23)cn1 (single isomer, unassigned) [Example 33]
8.59	5.99	CCC(c1ccc2cnccc2c1)n1cc(C(=O)N2CCC[C@@]3(C2)OC(=O)Nc2ccc(Cl)c(F)c23)cn1 (single isomer, unassigned) [Example 35]
8.55	5.60	CCC(c1ccc2cnccc2c1)n1cc(C(=O)N2CCC[C@@]3(C2)OC(=O)Nc2ccc(Cl)c(F)c23)cn1 (single isomer, unassigned) [Example 36]
8.59	5.84	CCC(c1ccnc(C(F)(F)F)c1)n1cc(C(=O)N2CCC[C@@]3(C2)OC(=O)Nc2ccc(Cl)c(F)c23)cn1 (single isomer, unassigned) [Example 37]
8.74	5.69	CCC(c1ccnc(C(F)(F)F)c1)n1cc(C(=O)N2CCC[C@@]3(C2)OC(=O)Nc2ccc(Cl)c(F)c23)cn1 (single isomer, unassigned) [Example 38]
8.40	5.87	CCC(c1ccc2[nH]ncc2c1)n1cc(C(=O)N2CCC[C@@]3(C2)OC(=O)Nc2ccc(Cl)c(F)c23)cn1 (single isomer, unassigned) [Example 39]
8.15	6.00	CCC(c1ccc2[nH]ncc2c1)n1cc(C(=O)N2CCC[C@@]3(C2)OC(=O)Nc2ccc(Cl)c(F)c23)cn1 (single isomer, unassigned) [Example 40]
7.85	5.28	CCC(c1ccc2ncncc2c1)n1cc(C(=O)N2CCC[C@@]3(C2)OC(=O)Nc2ccc(Cl)c(F)c23)cn1 (single isomer, unassigned) [Example 42]

pIC50 (Human plasma kallikrein)	pIC50 (human factor XIa)	Compound
7.57	5.33	CCC(c1c(C)noc1C)n1cc(C(=O)N2CCC[C@@]3(C2)OC(=O)Nc2ccc(Cl)c(F)c23)cn1 (single isomer, unassigned) [Example 43]
8.23	5.62	CCC(c1c(C)noc1C)n1cc(C(=O)N2CCC[C@@]3(C2)OC(=O)Nc2ccc(Cl)c(F)c23)cn1 (single isomer, unassigned) [Example 44]
9.10	5.85	CCC(c1cc(C)c2nc[nH]c2c1)n1cc(C(=O)N2CCC[C@@]3(C2)OC(=O)Nc2ccc(Cl)c(F)c23)cn1 (single isomer, unassigned) [Example 45, (4R)-6-Chloro-5-fluoro-1′-(1-((R or S)-1-(4-methyl-1H-benzo[d]imidazol-6-yl)propyl)-1H-pyrazole-4-carbonyl)spiro[benzo[d][1,3]oxazine-4,3′-piperidin]-2(1H)-one]
8.92	6.07	CCC(c1cc(C)c2nc[nH]c2c1)n1cc(C(=O)N2CCC[C@@]3(C2)OC(=O)Nc2ccc(Cl)c(F)c23)cn1 (single isomer, unassigned) [Example 46, (4R)-6-Chloro-5-fluoro-1′-(1-((S or R)-1-(4-methyl-1H-benzo[d]imidazol-6-yl)propyl)-1H-pyrazole-4-carbonyl)spiro[benzo[d][1,3]oxazine-4,3′-piperidin]-2(1H)-one]
7.49	5.87	CCC(c1ccc(F)cc1)c1c[nH]c(C(=O)N2CC[C@@]3(C2)OC(=O)Nc2ccc(Cl)c(F)c23)n1 (single isomer, unassigned) [Example 66, (4R)-6-Chloro-5-fluoro-1′-(4-((S or R)-1-(4-fluorophenyl)propyl)-1H-imidazole-2-carbonyl)spiro[benzo[d][1,3]oxazine-4,3′-pyrrolidin]-2(1H)-one]
8.26	6.00	CCC(c1ccc(F)cc1)c1c[nH]c(C(=O)N2CCC[C@@]3(C2)OC(=O)Nc2ccc(Cl)c(F)c23)n1 (single isomer, unassigned) [Example 71, (R)-6-Chloro-5-fluoro-1′-(4-((R or S)-1-(4-fluorophenyl)propyl)-1H-imidazole-2-carbonyl)spiro[benzo[d][1,3]oxazine-4,3′-piperidin]-2(1H)-one]
8.03	5.84	CCC(c1ccc(F)cc1)c1c[nH]c(C(=O)N2CCC[C@@]3(C2)OC(=O)Nc2ccc(Cl)c(F)c23)n1 (single isomer, unassigned) [Example 72, (R)-6-Chloro-5-fluoro-1′-(4-((S or R)-1-(4-fluorophenyl)propyl)-1H-imidazole-2-carbonyl)spiro[benzo[d][1,3]oxazine-4,3′-piperidin]-2(1H)-one]
8.09	5.69	CCC(c1ccnc(C(F)(F)F)c1)c1c[nH]c(C(=O)N2CCC[C@@]3(C2)OC(=O)Nc2ccc(Cl)c(F)c23)n1 (single isomer, unassigned) [Example 73, (R)-6-Chloro-5-fluoro-1′-(4-((R or S)-1-(2-(trifluoromethyl)pyridin-4-yl)propyl)-1H-imidazole-2-carbonyl)spiro[benzo[d][1,3]oxazine-4,3′-piperidin]-2(1H)-one]
7.97	5.56	CCC(c1ccnc(C(F)(F)F)c1)c1c[nH]c(C(=O)N2CCC[C@@]3(C2)OC(=O)Nc2ccc(Cl)c(F)c23)n1 (single isomer, unassigned) [Example 74, (R)-6-Chloro-5-fluoro-1′-(4-((S or R)-1-(2-(trifluoromethyl)pyridin-4-yl)propyl)-1H-imidazole-2-carbonyl)spiro[benzo[d][1,3]oxazine-4,3′-piperidin]-2(1H)-one]
8.24	6.49	COC1(CC(c2ccccc2)c2c[nH]c(C(=O)N3CCC[C@@]4(C3)OC(=O)Nc3ccc(Cl)c(F)c34)n2)CC1 (single isomer, unassigned) [Example 75, (R)-6-Chloro-5-fluoro-1′-(4-((R or S)-2-(1-methoxycyclopropyl)-1-phenylethyl)-1H-imidazole-2-carbonyl)spiro[benzo[d][1,3]oxazine-4,3′-piperidin]-2(1H)-one]
7.86	5.41	O=C1Nc2ccc(Cl)c(F)c2[C@@]2(CCCN(C(=O)c3cnc(C(O)c4ccc(F)cc4)[nH]3)C2)O1 (single isomer, unassigned) [Example 78]
8.77	6.71	CC[C@@H](c1ccc(F)cc1)c1ncc(C(=O)N2CCC[C@@]3(C2)OC(=O)Nc2ccc(Cl)c(F)c23)[nH]1 (single isomer, unassigned) [Example 79]
8.72	6.75	CC[C@H](c1ccc(F)cc1)c1ncc(C(=O)N2CCC[C@@]3(C2)OC(=O)Nc2ccc(Cl)c(F)c23)[nH]1 (single isomer, unassigned) [Example 80]
7.37	5.13	O=C1Nc2ccc(Cl)c(F)c2[C@@]2(CCCN(C(=O)c3cnc(C(c4ccc(F)cc4)C(F)(F)F)[nH]3)C2)O1 (single isomer, unassigned) [Example 82]
	5.86	O=C1Nc2ccc(Cl)c(F)c2[C@@]2(CCCN(C(=O)c3cnn(Cc4ccccc4)c3)C2)O1 [Example 3, (R)-1′-(1-Benzyl-1H-pyrazole-4-carbonyl)-6-chloro-5-fluorospiro[benzo[d][1,3]oxazine-4,3′-piperidin]-2(1H)-one]
